Assay results as given in article PMC8901636, “Preclinical studies of Flonoltinib Maleate, a novel JAK2/FLT3 inhibitor, in treatment of JAK2^V617F-induced myeloproliferative neoplasms” (Blood Cancer Journal, 2022).
Where two headings read alike, the source gives them in different places.

Tests used:
[1] = test system: JAK2/JAK2 signaling; assay: Cytokine-stimulated cell-based assay, GM-CSF-induced p-STAT5; conditions: western blotting
[2] = test system: JAK1/TYK2 pathway; assay: Cytokine-stimulated cell-based assay, IFN-α-induced p-STAT1; conditions: western blotting
[3] = test system: JAK1/JAK2; assay: Cytokine-stimulated cell-based assay, IFN-γ-induced p-STAT1 in U2OS cells; conditions: Homo sapiens
[4] = test system: JAK1/JAK2; assay: Cytokine-stimulated cell-based assay, G-CSF-induced p-STAT3 in HEL cells; conditions: Homo sapiens
From the text: To further determine the selectivity of FM to inhibit different JAK isotypes in cell lines, we performed a series of cytokine-stimulated cell-based assays and assessed the signal transduction of JAK subtypes.
(A) Inhibition of cytokine induced JAK auto-phosphorylation by FM in HEL cell lines. Raw data about HEL (B) and Ba/F3-JAK2^V617F (C) cells were supplemented with different concentrations of FM for cell cycle analysis. […] (F) p-FLT3, p-STAT5, and p-ERK in Molm-13 cell line were also assessed after 3 hours exposure with increasing concentrations of FM.

[5] = test system: Ba/F3-JAK2^V617F; assay: MTT assay for cell proliferation; assay type: cell-based, Murine; conditions: Mus musculus, 72 h, read-out: IC50(μM) ± SD, tumor cell proliferation
Protocol: (§4) For in vitro inhibition assays, cells were seeded in 96-well culture plates with a density of 15,000–20,000 cells/well after the cells reached 70–90% confluence. […] MTT (3-(4, 5-dimethylthiazol-2-yl)-2, 5-diphenyltetrazolium bromide) (Cat. No. 1334GR001; BioFroxx) assay was conducted in order to examine viability. The IC50 values were fitted using GraphPad Prism 7.0.

[6] = test system: Ba/F3-EPOR-JAK2^V617F; assay: MTT assay for cell proliferation; assay type: cell-based, Murine; conditions: Mus musculus
Protocol: as §4

[7] = test system: MV-4-11; assay: MTT assay for cell proliferation; assay type: cell-based; conditions: Homo sapiens, MV4-11, 72 h, read-out: IC50(μM) ± SD, tumor cell proliferation
Protocol: as §4

[8] = test system: Ba/F3-FLT3-ITD^D835V; assay: MTT assay for cell proliferation; assay type: cell-based, Murine; conditions: Mus musculus, 72 h, read-out: IC50(μM) ± SD, tumor cell proliferation
Protocol: as §4

[9] = test system: FLT3 mutant tumor cell lines; assay: MTT assay for cell proliferation, summary of panel; assay type: cell-based; conditions: summary of Table S7
Protocol: (§1) For in vitro inhibition assays, cells were seeded in 96-well culture plates with a density of 15,000–20,000 cells/well after the cells reached 70–90% confluence. After overnight incubation, the cells received a supplement of serial concentrations of FM and underwent 72 h incubation at 37 °C under 5% CO2. MTT (3-(4, 5-dimethylthiazol-2-yl)-2, 5-diphenyltetrazolium bromide) (Cat. No. 1334GR001; BioFroxx) assay was conducted in order to examine viability. The IC50 values were fitted using GraphPad Prism 7.0.

[10] = test system: JAK2^V617F mutant cell lines; assay: MTT assay for cell proliferation, summary of panel; assay type: cell-based; conditions: summary of Table S7; read-out: anti-proliferative IC50 on JAK2^V617F mutant cell lines
Protocol: as §1

[11] = test system: JAK2^V617F; assay: JAK2^V617F bone marrow transplantation (BMT) myelofibrosis model; assay type: in vivo, BALB/c mice; conditions: for inhibition of splenomegaly: figure prints it with a minus sign over Spleen Wight (mg); for median survival time: vehicle 133.5 days; for BM Reticulin, fibrosis grade: bone marrow, WHO grading, vehicle MF-2
[12] = test system: Ba/F3-EPOR-JAK2^V617F cells; assay: PD study after repeated administration in Ba/F3-EPOR-JAK2^V617F tumor-bearing mice; assay type: in vivo
Protocol: For Ba/F3-EPOR-JAK2^V617F driven malignant model after repeated administration, tumor-bearing mice were randomly divided into 8 groups on the 10th day. Mice were sacrificed at 0, 0.25, 0.5, 1, 4, 8, 12, and 24 hours after the last oral administration, and tissue samples were harvested to determine the distribution of FM and PK parameters by UFLC-MS/MS. For PD studies, we weighed the spleen, and analyzed the ratio of GFP^+ in the spleen and PB by flow cytometry, and test the downstream pathway protein p-STAT5 (Y694, Cat. No. Ab32364) via Western Blot.
With the decrease of drug concentration, the level of p-STAT5 increased to a certain extent, but 12 hours after administration, the level of p-STAT5 still decreased (Fig. 5C). […] 71 ± 7. 91%, respectively. In addition, the weight of spleen was 267.2 ± 56.8 mg in the untreated group and 167.5 ± 52.9 mg in the repeated administration groups (12 hours after the last administration) (Fig. 5D and Fig. S4E).

[13] = Bioavailability; conditions: rat, in vivo; rats; data not shown
[14] = Bioavailability; conditions: dog, in vivo; dogs; data not shown
[15] = test system: CD34^+ cells; assay: CD34+ cells in peripheral blood of normal mice; assay type: in vivo; conditions: normal BALB/c mice; 30 mg/kg p.o. twice a day; Day 0-21
Protocol: (§2) To further understand the effect of FM on normal mice and normal human CD34^+ cells, we conducted a further analysis on CD34^+ cells. For normal mice, we measured the proportion of CD34^+ in the peripheral blood of BALB/c mice on Day 0, and then mice were treated with FM 30 mg/kg p.o. twice a day. […] To investigate the effect of FM on normal human CD34^+ cells, we collected mononuclear cells of PB acquired from healthy donors. […] Therefore, in the future phase I clinical trials, we should examine the myelosuppressive effects of FM in patients with MPN.
(§3) (A) Normal BALB/c mice were treated with vehicle and FM 30mg/kg p.o. twice a day. FACS analysis of the percentage of CD34^+ cells on Day 0, 7, 14 and 21 (n = 7). (B) Mononuclear cells were isolated from the PB of healthy donors and CD34^+ cells were analyzed after incubated with FM after 48h.

[16] = test system: normal human CD34^+ cells; assay: Normal human CD34+ cells from PB mononuclear cells of healthy donors; assay type: cell-based; conditions: 48 h
Protocol: as §2, §3

[17] = target: JAK3 (Homo sapiens, UniProt P52333); assay: In vitro kinase assay
Sequence of JAK3 (P52333 whole entry): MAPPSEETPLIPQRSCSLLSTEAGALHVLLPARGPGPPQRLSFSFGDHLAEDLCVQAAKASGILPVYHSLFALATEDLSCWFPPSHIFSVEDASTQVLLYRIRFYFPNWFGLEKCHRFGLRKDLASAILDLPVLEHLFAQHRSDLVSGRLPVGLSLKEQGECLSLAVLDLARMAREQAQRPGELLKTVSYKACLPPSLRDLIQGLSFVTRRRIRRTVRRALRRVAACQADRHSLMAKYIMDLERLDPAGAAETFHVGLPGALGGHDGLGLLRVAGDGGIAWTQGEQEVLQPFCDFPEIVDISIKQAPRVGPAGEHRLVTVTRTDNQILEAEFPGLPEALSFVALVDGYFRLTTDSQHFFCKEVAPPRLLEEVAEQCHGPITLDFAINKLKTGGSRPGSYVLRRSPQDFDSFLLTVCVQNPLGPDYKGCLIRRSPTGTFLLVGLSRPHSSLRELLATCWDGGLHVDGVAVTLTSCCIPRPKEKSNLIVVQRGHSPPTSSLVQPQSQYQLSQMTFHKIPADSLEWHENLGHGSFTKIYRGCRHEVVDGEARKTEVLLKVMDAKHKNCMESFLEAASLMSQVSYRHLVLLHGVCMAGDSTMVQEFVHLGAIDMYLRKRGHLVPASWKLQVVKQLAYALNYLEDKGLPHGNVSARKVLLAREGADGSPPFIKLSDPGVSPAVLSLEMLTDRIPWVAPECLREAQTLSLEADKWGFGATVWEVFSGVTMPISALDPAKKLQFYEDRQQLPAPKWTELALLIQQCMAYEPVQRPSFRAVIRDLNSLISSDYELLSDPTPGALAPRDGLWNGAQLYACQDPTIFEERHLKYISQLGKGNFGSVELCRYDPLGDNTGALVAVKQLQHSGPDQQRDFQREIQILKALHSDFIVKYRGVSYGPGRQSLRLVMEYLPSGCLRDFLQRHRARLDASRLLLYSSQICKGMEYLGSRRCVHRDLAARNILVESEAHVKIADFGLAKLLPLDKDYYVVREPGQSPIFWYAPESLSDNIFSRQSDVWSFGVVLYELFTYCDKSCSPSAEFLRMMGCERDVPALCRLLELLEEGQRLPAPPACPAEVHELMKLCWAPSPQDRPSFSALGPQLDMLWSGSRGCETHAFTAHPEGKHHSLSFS

[18] = test system: Ba/F3-JAK2^V617F cells; assay: Ba/F3-JAK2^V617F disease model; conditions: for inhibition of the spleen growth: 22 days, figure prints it with a minus sign over Spleen Weight (mg); for median survival: vehicle 25 days
[19] = test system: Ba/F3-EPOR-JAK2^V617F cells; assay: Ba/F3-EPOR-JAK2^V617F malignancy mouse model; conditions: for spleen suppression rate: 16 days; for median survival time: vehicle 19 days
[20] = before the last administration, 30 mg/kg repeated

Cc1cnc(Nc2ccc(N3CCC(N(C)CCO)CC3)c(F)c2)nc1-c1cnn(C(C)C)c1 [FM, 2-((1-(2-fluoro-4-((4-(1-isopropyl-1H-pyrazol-4-yl)-5-methylpyrimidin-2-yl)amino)phenyl)piperidin-4-yl)(methyl)amino)ethan-1-ol]
IC50 [1]: 0.12 µM
IC50 [2]: > 5 µM
IC50 [3]: 0.39 µM
IC50 [4]: 0.46 µM
IC50 [5]: 0.2 ± 0.01 µM
IC50 ([6]; 72 h, read-out: IC50(μM) ± SD, tumor cell proliferation): 0.78 ± 0.21 µM
IC50 ([6]; as quoted in PK/PD text, read-out: IC50 value of Ba/F3-EPOR-JAK2^V617F cells in vitro): 0.79 ± 0.01 µM
IC50 [7]: 0.01 ± 0.01 µM
IC50 [8]: 0.1 ± 0.06 µM
IC50 [9]: < 0.1 µM
IC50 [10]: < 0.5 µM
inhibition of splenomegaly ([11]; 15 mg/kg bid p.o.): 97.11%
median survival time ([11]; 15 mg/kg bid p.o.): > 180 days
inhibition of splenomegaly ([11]; 30 mg/kg bid p.o.): 101.62%
median survival time ([11]; 30 mg/kg bid p.o.): > 180 days
inhibition of splenomegaly ([11]; 45 mg/kg bid p.o.): 101.24%
median survival time ([11]; 45 mg/kg bid p.o.): > 180 days
BM Reticulin, fibrosis grade ([11]; 30 mg/kg): non-MF
BM Reticulin, fibrosis grade ([11]; 45 mg/kg): non-MF
GFP^+ tumor cells in PB ([12]; 12 hours after the 17th administration, 30 mg/kg): 11.77 ± 5.5%
GFP^+ tumor cells in PB [12, 20]: 19.75 ± 12.93%
GFP^+ tumor cells in spleen [12, 20]: 17.12 ± 8.15%
weight of spleen ([12]; repeated administration, 12 hours after the last administration, untreated 267.2 ± 56.8 mg): 167.5 ± 52.9 mg
p-STAT5 level down-regulated by ([12]; spleen, 8 hours after administration, 30 mg/kg repeated): 43.80 ± 1.59%
bioavailability [13]: ~60%
bioavailability [14]: ~60%
CD34^+ cells in peripheral blood [15]: significantly inhibited
effect on normal human CD34^+ cells [16]: general inhibitory effect
IC50 [17]: 0.557 µM
inhibition of the spleen growth ([18]; 15 mg/kg bid p.o.): 72.56%
median survival ([18]; 15 mg/kg bid p.o.): 30 days
inhibition of the spleen growth ([18]; 30 mg/kg bid p.o.): 97.92%
median survival ([18]; 30 mg/kg bid p.o.): 31 days
body weight during treatment ([18]; any dose): no obvious body weight decrease
spleen suppression rate ([19]; 15 mg/kg bid p.o.): -35.67%
median survival time ([19]; 15 mg/kg bid p.o.): 22 days
spleen suppression rate ([19]; 30 mg/kg bid p.o.): -79.79%
median survival time ([19]; 30 mg/kg bid p.o.): 25 days
spleen suppression rate ([19]; 45 mg/kg bid p.o.): -101.08%
median survival time ([19]; 45 mg/kg bid p.o.): 25 days
visceral toxicity, tissues of treated mice ([19]; data not shown): did not cause obvious visceral toxicity
